{
  "source": "patent US6914045B2",
  "about": "“Glycopeptide antibiotics” (Wyeth Holdings Corporation, priority 2001, dated 2005)",
  "experiment_in_all_cases": "in vitro antibacterial evaluation, MIC by broth dilution",
  "assay_type_in_all_cases": "cell-based",
  "key": {"Escherichia coli": {"system": "Escherichia coli", "method_in_brief": "(§1)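 Read-out: the lowest concentration at which the test strain fails to grow. Serial dilutions (64-0.06 μg/mL) in Muller-Hinton II […], 5×10^5 CFU/mL inoculum, NCCLS M7-A2 procedure.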"}, "Enterococcus sp.": {"system": "Enterococcus sp.", "details": "broth dilution, 18 hours at 35° C.", "method_in_brief": "as §1"}, "Streptococcus sp.": {"system": "Streptococcus sp.", "details": "broth dilution, 18 hours at 35° C.", "method_in_brief": "as §1"}, "Staphylococcus sp.": {"system": "Staphylococcus sp.", "details": "broth dilution, 18 hours at 35° C.; for MIC Staphylococcus aureus (GC 1131): strain GC 1131", "method_in_brief": "as §1"}},
  "data": [
    {"compound": "COc1cc(OC)cc(C2OCC3OC(OC4C(CO)OC(Oc5ccc(CC6NC(=O)C(C(C)c7ccccc7)NC(=O)CNC(=O)C(CO)NC(=O)C(C(O)C7CNC(=N)N7C7OC(CO)C(O)C(O)C7O)NC(=O)C(C(O)C7CNC(=N)N7)NC6=O)cc5)C(O)C4O)C(O)C(O)C3O2)c1", "note": "(stereo not drawn) [Example 150]", "values": [
      {"measurement": "MIC Escherichia coli (ATCC 25922)", "setting": "Escherichia coli; strain ATCC 25922, 18 hours at 35° C.", "value": ">64", "unit": "µg/mL"},
      {"measurement": "MIC Escherichia coli (GC 4559)", "setting": "Escherichia coli; strain GC 4559, 18 hours at 35° C.", "value": 32, "unit": "µg/mL"},
      {"measurement": "MIC Escherichia coli (GC 4560)", "setting": "Escherichia coli; strain GC 4560, 18 hours at 35° C.", "value": 1, "unit": "µg/mL"},
      {"measurement": "MIC Enterococcus avium (GC 4558)", "setting": "Enterococcus sp.; Enterococcus avium (GC 4558)", "value": 8, "unit": "µg/mL"},
      {"measurement": "MIC Enterococcus faecalis (ATCC 29212)", "setting": "Enterococcus sp.; Enterococcus faecalis (ATCC 29212)", "value": 8, "unit": "µg/mL"},
      {"measurement": "MIC Enterococcus faecalis (GC 2242)", "setting": "Enterococcus sp.; Enterococcus faecalis (GC 2242)", "value": 4, "unit": "µg/mL"},
      {"measurement": "MIC Enterococcus faecalis (GC 2691)", "setting": "Enterococcus sp.; Enterococcus faecalis (GC 2691)", "value": 4, "unit": "µg/mL"},
      {"measurement": "MIC Enterococcus faecalis (GC 3059)", "setting": "Enterococcus sp.; Enterococcus faecalis (GC 3059)", "value": 8, "unit": "µg/mL"},
      {"measurement": "MIC Enterococcus faecalis (GC 4552)", "setting": "Enterococcus sp.; Enterococcus faecalis (GC 4552)", "value": 8, "unit": "µg/mL"},
      {"measurement": "MIC Enterococcus faecalis (GC 4553)", "setting": "Enterococcus sp.; Enterococcus faecalis (GC 4553)", "value": 8, "unit": "µg/mL"},
      {"measurement": "MIC Enterococcus faecalis (GC 4554)", "setting": "Enterococcus sp.; Enterococcus faecalis (GC 4554)", "value": 8, "unit": "µg/mL"},
      {"measurement": "MIC Enterococcus faecalis (GC 6189)", "setting": "Enterococcus sp.; Enterococcus faecalis (GC 6189)", "value": 8, "unit": "µg/mL"},
      {"measurement": "MIC Enterococcus faecium (GC 2243)", "setting": "Enterococcus sp.; Enterococcus faecium (GC 2243)", "value": 8, "unit": "µg/mL"},
      {"measurement": "MIC Enterococcus faecium (GC 4556)", "setting": "Enterococcus sp.; Enterococcus faecium (GC 4556)", "value": 8, "unit": "µg/mL"},
      {"measurement": "MIC Enterococcus faecium (GC 4557)", "setting": "Enterococcus sp.; Enterococcus faecium (GC 4557)", "value": 4, "unit": "µg/mL"},
      {"measurement": "MIC Enterococcus faecalis (ATCC 29212)", "setting": "Enterococcus sp.; strain ATCC 29212", "value": 8, "unit": "µg/mL"},
      {"measurement": "MIC Enterococcus faecalis (GC 2242)", "setting": "Enterococcus sp.; strain GC 2242", "value": 4, "unit": "µg/mL"},
      {"measurement": "MIC Enterococcus faecium (GC 2243)", "setting": "Enterococcus sp.; strain GC 2243", "value": 8, "unit": "µg/mL"},
      {"measurement": "MIC Enterococcus faecalis (GC 2691)", "setting": "Enterococcus sp.; strain GC 2691", "value": 4, "unit": "µg/mL"},
      {"measurement": "MIC Enterococcus faecalis (GC 3059)", "setting": "Enterococcus sp.; strain GC 3059", "value": 8, "unit": "µg/mL"},
      {"measurement": "MIC Enterococcus faecalis (GC 4552)", "setting": "Enterococcus sp.; strain GC 4552", "value": 8, "unit": "µg/mL"},
      {"measurement": "MIC Enterococcus faecalis (GC 4553)", "setting": "Enterococcus sp.; strain GC 4553", "value": 8, "unit": "µg/mL"},
      {"measurement": "MIC Enterococcus faecalis (GC 4554)", "setting": "Enterococcus sp.; strain GC 4554", "value": 8, "unit": "µg/mL"},
      {"measurement": "MIC Enterococcus faecium (GC 4556)", "setting": "Enterococcus sp.; strain GC 4556", "value": 8, "unit": "µg/mL"},
      {"measurement": "MIC Enterococcus faecium (GC 4557)", "setting": "Enterococcus sp.; strain GC 4557", "value": 4, "unit": "µg/mL"},
      {"measurement": "MIC Enterococcus avium (GC 4558)", "setting": "Enterococcus sp.; strain GC 4558", "value": 8, "unit": "µg/mL"},
      {"measurement": "MIC Enterococcus faecalis (GC 6189)", "setting": "Enterococcus sp.; strain GC 6189", "value": 8, "unit": "µg/mL"},
      {"measurement": "MIC Streptococcus agalactiae (GC 4564)", "setting": "Streptococcus sp.; Streptococcus agalactiae (GC 4564)", "value": 1, "unit": "µg/mL"},
      {"measurement": "MIC Streptococcus pneumoniae (ATCC 6301)", "setting": "Streptococcus sp.; Streptococcus pneumoniae (ATCC 6301)", "value": 0.25, "unit": "µg/mL"},
      {"measurement": "MIC Streptococcus pneumoniae (GC 1894)", "setting": "Streptococcus sp.; Streptococcus pneumoniae (GC 1894)", "value": 0.12, "unit": "µg/mL"},
      {"measurement": "MIC Streptococcus pneumoniae (GC 4565)", "setting": "Streptococcus sp.; Streptococcus pneumoniae (GC 4565)", "value": 0.25, "unit": "µg/mL"},
      {"measurement": "MIC Streptococcus pyogenes (GC 4563)", "setting": "Streptococcus sp.; Streptococcus pyogenes (GC 4563)", "value": 0.5, "unit": "µg/mL"},
      {"measurement": "MIC Streptococcus pneumoniae (ATCC 6301)", "setting": "Streptococcus sp.; strain ATCC 6301", "value": 0.25, "unit": "µg/mL"},
      {"measurement": "MIC Streptococcus pneumoniae (GC 1894)", "setting": "Streptococcus sp.; strain GC 1894", "value": 0.12, "unit": "µg/mL"},
      {"measurement": "MIC Streptococcus pyogenes (GC 4563)", "setting": "Streptococcus sp.; strain GC 4563", "value": 0.5, "unit": "µg/mL"},
      {"measurement": "MIC Streptococcus agalactiae (GC 4564)", "setting": "Streptococcus sp.; strain GC 4564", "value": 1, "unit": "µg/mL"},
      {"measurement": "MIC Streptococcus pneumoniae (GC 4565)", "setting": "Streptococcus sp.; strain GC 4565", "value": 0.25, "unit": "µg/mL"},
      {"measurement": "MIC Staphylococcus aureus (GC 1131)", "setting": "Staphylococcus sp.; inoculum 5×10^5 CFU/mL", "value": 4, "unit": "µg/mL"},
      {"measurement": "MIC Staphylococcus aureus (ATCC 29213)", "setting": "Staphylococcus sp.; strain ATCC 29213", "value": 2, "unit": "µg/mL"},
      {"measurement": "MIC Staphylococcus aureus (GC 1131)", "setting": "Staphylococcus sp.", "value": 4, "unit": "µg/mL"},
      {"measurement": "MIC Staphylococcus aureus (GC 3051)", "setting": "Staphylococcus sp.; strain GC 3051", "value": 2, "unit": "µg/mL"},
      {"measurement": "MIC Staphylococcus aureus (GC 3053)", "setting": "Staphylococcus sp.; strain GC 3053", "value": 8, "unit": "µg/mL"},
      {"measurement": "MIC Staphylococcus aureus (GC 4541)", "setting": "Staphylococcus sp.; strain GC 4541", "value": 2, "unit": "µg/mL"},
      {"measurement": "MIC Staphylococcus aureus (GC 4542)", "setting": "Staphylococcus sp.; strain GC 4542", "value": 2, "unit": "µg/mL"},
      {"measurement": "MIC Staphylococcus aureus-SMITH (GC 4543)", "setting": "Staphylococcus sp.; strain GC 4543", "value": 2, "unit": "µg/mL"},
      {"measurement": "MIC Staphylococcus aureus (GC 4544)", "setting": "Staphylococcus sp.; strain GC 4544", "value": 2, "unit": "µg/mL"},
      {"measurement": "MIC Staphylococcus aureus (GC 4545)", "setting": "Staphylococcus sp.; strain GC 4545", "value": 2, "unit": "µg/mL"},
      {"measurement": "MIC Staphylococcus haemolyticus (GC 4546)", "setting": "Staphylococcus sp.; strain GC 4546", "value": 1, "unit": "µg/mL"},
      {"measurement": "MIC Coagulase Negative Staphylococcus (GC 4547)", "setting": "Staphylococcus sp.; strain GC 4547", "value": 2, "unit": "µg/mL"},
      {"measurement": "MIC Coagulase Negative Staphylococcus (GC 4548)", "setting": "Staphylococcus sp.; strain GC 4548", "value": 1, "unit": "µg/mL"},
      {"measurement": "MIC Coagulase Negative Staphylococcus (GC 4549)", "setting": "Staphylococcus sp.; strain GC 4549", "value": 1, "unit": "µg/mL"},
      {"measurement": "MIC Coagulase Negative Staphylococcus (GC 4551)", "setting": "Staphylococcus sp.; strain GC 4551", "value": 2, "unit": "µg/mL"},
      {"measurement": "MIC Coagulase Negative Staphylococcus (GC 6257)", "setting": "Staphylococcus sp.; strain GC 6257", "value": 1, "unit": "µg/mL"},
      {"measurement": "MIC Staphylococcus aureus-SMITH (GC 4543)", "setting": "Staphylococcus sp.; strain SMITH GC 4543", "value": 2, "unit": "µg/mL"}
    ]}
  ]
}
